Measurements reported in ChEMBL document CHEMBL6177995, “In Silico Discovery of Novel Potent Trace Amine-Associated Receptor TAAR1 Agonists as Promising Drug Candidates for the Treatment of Schizophrenia” (J Med Chem, 2025).

Columns and labels:
[1] = molecular target: T1, Trace amine-associated receptor 1 (Homo sapiens, UniProt Q96RJ0); assay: Agonist activity at TAAR1 (unknown origin) transfected in HEK293 cells co-transfected with GalphaS-Nluc, Gbeta1/3 and Ggamma1/2/9-mVenus assessed as GalphaS-Gbeta/gamma dissociation by BRET assay; assay type: functional, cell-based
T1 sequence (Q96RJ0 whole entry): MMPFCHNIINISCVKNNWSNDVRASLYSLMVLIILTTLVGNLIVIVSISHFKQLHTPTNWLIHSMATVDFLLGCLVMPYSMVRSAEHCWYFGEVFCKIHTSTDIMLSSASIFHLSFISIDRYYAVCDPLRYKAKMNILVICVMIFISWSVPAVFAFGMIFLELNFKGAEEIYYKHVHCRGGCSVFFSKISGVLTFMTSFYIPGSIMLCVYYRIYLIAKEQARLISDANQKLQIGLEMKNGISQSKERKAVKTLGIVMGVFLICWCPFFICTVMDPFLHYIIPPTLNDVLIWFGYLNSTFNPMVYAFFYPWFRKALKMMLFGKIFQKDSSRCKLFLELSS

[2] = molecular target: T1, Trace amine-associated receptor 1; assay: Agonist activity at TAAR1 (unknown origin) transfected in HEK293 cells co-transfected with Galphaq-Nluc, Gbeta1/3 and Ggamma1/2/9-mVenus assessed as Galphaq-Gbeta/gamma dissociation by BRET assay; assay type: functional, cell-based
[3] = Toxicity in male C57BL/6J mouse assessed as catalepsy by measuring extrapyramidal symptoms at 3 mg/kg, ip measured after 30 to 60 mins by bar test; assay type: organism-based; conditions: in vivo, time 30-60 min

SMILES | EC50 [1] | EC50 [2] | Activity [3]
O=[N+]([O-])c1ccccc1S(=O)(=O)NC[C@@H]1CCCN1 | > 10 µM | > 10 µM | –
O=S(=O)(NC[C@@H]1CCCN1)c1c(Cl)cccc1Cl | > 10 µM | > 10 µM | –
COc1ccc(S(=O)(=O)NC[C@@H]2CCCN2)cc1 | – | 0.0357 µM | –
O=S(=O)(NC[C@@H]1CCCN1)c1ccc2[nH]cnc2c1 | 0.0472 µM | 0.131 µM | –
O=C(CCCN1CCC(O)(c2ccc(Cl)cc2)CC1)c1ccc(F)cc1 [HALOPERIDOL] | – | – | Toxic
O=[N+]([O-])c1ccc(S(=O)(=O)NC[C@@H]2CCCN2)cc1 | > 10 µM | > 10 µM | –
O=S(=O)(NC[C@@H]1CCCN1)c1ccc(Br)cc1 | > 10 µM | > 10 µM | –
O=S(=O)(NC[C@@H]1CCCN1)c1ccccc1Br | > 10 µM | > 10 µM | –
CCC[C@H]1CN(C(=O)c2cc(Cl)cn2C)C[C@@H]1N | 0.275 µM | – | –
N#Cc1cccc(S(=O)(=O)NC[C@@H]2CCCN2)c1 | > 10 µM | > 10 µM | –
CC(C)CC(N)c1nc2ccccc2[nH]1 (configuration not stated) | 0.1 µM | – | –
O=S(=O)(NC[C@@H]1CCCN1)c1ccc(O)cc1 | > 10 µM | > 10 µM | –
Cc1ccccc1S(=O)(=O)NC[C@@H]1CCCN1 | > 10 µM | > 10 µM | –

More lines, main results first:

EC50 [1] | EC50 [2] | SMILES | Activity [3]
> 10 µM | > 10 µM | N#Cc1ccc(S(=O)(=O)NC[C@@H]2CCCN2)cc1 | –
> 10 µM | > 10 µM | O=S(=O)(NC[C@@H]1CCCN1)c1ccc(Cl)s1 | –
0.158 µM | – | O=c1[nH]c2cc(S(=O)(=O)NC[C@@H]3CCCN3)ccc2o1 | –
> 10 µM | > 10 µM | O=c1[nH]c2ccc(S(=O)(=O)NC[C@@H]3CCCN3)cc2[nH]1 | –
> 10 µM | > 10 µM | O=S(=O)(NC[C@@H]1CCCN1)c1ccc2c(c1)CCC2 | –
– | 0.0416 µM | CC(=O)Nc1ccc(S(=O)(=O)NC[C@@H]2CCCN2)cc1 | –
